In PubChem BioAssay AID330 (DTP/NCI, 2004):
Inconclusive results and toxic doses are left out. How the source made its calls: active means survival T/C of 150% or more; inactive means T/C below 125% in these data.

Test system: P388 leukemia ip, CD2F1 mice, survival T/C
Experiment: NCI In Vivo Anticancer Drug Screen. Data for tumor model P388 Leukemia (intraperitoneal) in CD2F1 (CDF1) mice
Conditions: endpoint: median survival time, higher = longer survival
Procedure, shortened: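 Mice carrying the transplanted tumor received test compound or vehicle. Survival was recorded in each group, and the value is the treated-group measurement divided by that of the vehicle-treated control group.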

[1] = dose: 50.0 mg/kg/injection, schedule: Q01DX009 (ip), vehicle: saline with Tween-80
[2] = dose: 100.0 mg/kg/injection, schedule: Q01DX009 (ip), vehicle: saline with Tween-80
[3] = dose: 200.0 mg/kg/injection, schedule: Q01DX009 (ip), vehicle: saline with Tween-80
[4] = dose: 50.0 mg/kg/injection, schedule: Q01DX005 (ip), vehicle: Klucel (hydroxypropylcellulose) (HPC)
[5] = dose: 100.0 mg/kg/injection, schedule: Q01DX005 (ip), vehicle: Klucel (hydroxypropylcellulose) (HPC)
[6] = dose: 200.0 mg/kg/injection, schedule: Q01DX005 (ip), vehicle: Klucel (hydroxypropylcellulose) (HPC)
[7] = dose: 50.0 mg/kg/injection, schedule: Q01DX009 (ip), vehicle: Klucel (hydroxypropylcellulose) (HPC)
[8] = dose: 100.0 mg/kg/injection, schedule: Q01DX009 (ip), vehicle: Klucel (hydroxypropylcellulose) (HPC)
[9] = dose: 200.0 mg/kg/injection, schedule: Q01DX009 (ip), vehicle: Klucel (hydroxypropylcellulose) (HPC)
[10] = dose: 12.5 mg/kg/injection, schedule: Q01DX009 (ip), vehicle: distilled water + Tween-80
[11] = dose: 100.0 mg/kg/injection, schedule: Q04DX003 (ip), vehicle: saline with Tween-80
[12] = dose: 200.0 mg/kg/injection, schedule: Q04DX003 (ip), vehicle: saline with Tween-80

Measured: T/C

CCN(CC)CCNc1cc(C)nc2c1ccc1c2ccc2c(NCCN(CC)CC)cc(C)nc21
inactive: dose: 12.5 mg/kg/injection, schedule: Q01DX009 (ip), vehicle: water 104 % of control | dose: 25.0 mg/kg/injection, schedule: Q01DX009 (ip), vehicle: water 113 % of control | dose: 50.0 mg/kg/injection, schedule: Q01DX009 (ip), vehicle: water 97 % of control

CCCn1c(C)nc2c(N)cc(C(F)(F)F)cc21
inactive: dose: 100.0 mg/kg/injection, schedule: Q04DX002 (ip), vehicle: saline with Tween-80 105 % of control | dose: 200.0 mg/kg/injection, schedule: Q04DX002 (ip), vehicle: saline with Tween-80 100 % of control | dose: 400.0 mg/kg/injection, schedule: Q04DX002 (ip), vehicle: saline with Tween-80 95 % of control

ClC1=C(Cl)C2(Cl)C3C(c4cc(Br)c(Br)cc4C4C3C3(Cl)C(Cl)=C(Cl)C4(Cl)C3(Cl)Cl)C1(Cl)C2(Cl)Cl (configuration not stated)
inactive: dose: 50.0 mg/kg/injection, schedule: Q01DX009 (ip), vehicle: saline 101 % of control | dose: 100.0 mg/kg/injection, schedule: Q01DX009 (ip), vehicle: saline 106 % of control | dose: 200.0 mg/kg/injection, schedule: Q01DX009 (ip), vehicle: saline 102 % of control

O=C(CON1C(=O)CCC1=O)c1ccccc1
inactive: [1] 106 % of control | [2] 112 % of control | [3] 112 % of control

CSc1ccnc2cc(Cl)ccc12
inactive: [4] 96 % of control | [5] 106 % of control | [6] 110 % of control

NNS(=O)(=O)c1ccc(Cl)cc1
inactive: dose: 25.0 mg/kg/injection, schedule: Q01DX009 (ip), vehicle: other 117 % of control | dose: 50.0 mg/kg/injection, schedule: Q01DX009 (ip), vehicle: other 113 % of control | dose: 100.0 mg/kg/injection, schedule: Q01DX009 (ip), vehicle: other 120 % of control | dose: 200.0 mg/kg/injection, schedule: Q01DX009 (ip), vehicle: other 120 % of control

C/C(=N\NC(=S)N1CCC(c2ccccc2)CC1)c1ccccn1
inactive: dose: 100.0 mg/kg/injection, schedule: Q04DX003 (ip), vehicle: saline 100 % of control | dose: 200.0 mg/kg/injection, schedule: Q04DX003 (ip), vehicle: saline 101 % of control

CC(=O)Nc1ccc(S(=O)(=O)n2c(=O)oc3ccc(Cl)cc32)cc1
inactive: [4] 99 % of control | [5] 94 % of control | [6] 94 % of control

O=C(NC(Sc1ccc(Cl)cc1)C(=O)O)c1ccccc1 (configuration not stated)
inactive: [7] 104 % of control | [8] 94 % of control | [9] 94 % of control

C/C(=N\OCC(O)CNCCNC(=O)C(C)C)c1ccc(N(C)C)cc1 (configuration not stated)
inactive: dose: 60.0 mg/kg/injection, schedule: Q01DX005 (ip), vehicle: Klucel (hydroxypropylcellulose) (HPC) 98 % of control | dose: 120.0 mg/kg/injection, schedule: Q01DX005 (ip), vehicle: Klucel (hydroxypropylcellulose) (HPC) 99 % of control

CC1=C(CO)C(=O)OC(C(C)C2CCC3C4CC5OC56C(O)C(N5CCCCCC5)CC(=O)C6(C)C4CCC23C)C1 (configuration not stated)
inactive: dose: 9.38 mg/kg/injection, schedule: Q01DX005 (ip), vehicle: Klucel (hydroxypropylcellulose) (HPC) 101 % of control | dose: 18.75 mg/kg/injection, schedule: Q01DX005 (ip), vehicle: Klucel (hydroxypropylcellulose) (HPC) 101 % of control | dose: 37.5 mg/kg/injection, schedule: Q01DX005 (ip), vehicle: Klucel (hydroxypropylcellulose) (HPC) 105 % of control | dose: 75.0 mg/kg/injection, schedule: Q01DX005 (ip), vehicle: Klucel (hydroxypropylcellulose) (HPC) 105 % of control | dose: 150.0 mg/kg/injection, schedule: Q01DX005 (ip), vehicle: Klucel (hydroxypropylcellulose) (HPC) 104 % of control

Nc1ncnc(Nc2ccc(C(F)(F)F)cc2)n1
inactive: dose: 12.5 mg/kg/injection, schedule: Q01DX009 (ip), vehicle: Klucel (hydroxypropylcellulose) (HPC) 118 % of control | dose: 25.0 mg/kg/injection, schedule: Q01DX009 (ip), vehicle: Klucel (hydroxypropylcellulose) (HPC) 107 % of control | [7] 93 % of control | [8] 87 % of control

COC(=O)C(CSCc1ccccc1)NC(=O)CCNC(C)=O (configuration not stated)
inactive: [10] 97 % of control | dose: 25.0 mg/kg/injection, schedule: Q01DX009 (ip), vehicle: distilled water + Tween-80 100 % of control | dose: 50.0 mg/kg/injection, schedule: Q01DX009 (ip), vehicle: distilled water + Tween-80 91 % of control | dose: 100.0 mg/kg/injection, schedule: Q01DX009 (ip), vehicle: distilled water + Tween-80 92 % of control | dose: 200.0 mg/kg/injection, schedule: Q01DX009 (ip), vehicle: distilled water + Tween-80 91 % of control

CC(C)(C)c1cc(C(C)(C)O)c2c(c1)C(C)(C)OS2
inactive: dose: 50.0 mg/kg/injection, schedule: Q04DX003 (ip), vehicle: saline with Tween-80 99 % of control | [11] 106 % of control | [12] 100 % of control

CNc1ccc(Nc2cccc(C)c2)c2c1C(=O)c1ccccc1C2=O
inactive: [7] 100 % of control | [8] 91 % of control | [9] 113 % of control

COC(=O)c1ccc(OCCC(=O)CCl)cc1
inactive: [7] 102 % of control | [8] 106 % of control

CCOC(=O)C(=CC(CC)(C(=O)OCC)C(=O)OCC)C(=O)OCC
inactive: [11] 110 % of control | [12] 110 % of control | dose: 300.0 mg/kg/injection, schedule: Q04DX003 (ip), vehicle: saline 109 % of control | dose: 450.0 mg/kg/injection, schedule: Q04DX003 (ip), vehicle: saline 100 % of control | dose: 600.0 mg/kg/injection, schedule: Q04DX003 (ip), vehicle: saline 109 % of control

CC[n+]1c(-c2ccccc2)c2cc(NCCCN)ccc2c2ccc(N)cc21
inactive: dose: 1.25 mg/kg/injection, schedule: Q01DX009 (ip), vehicle: water 97 % of control | dose: 2.5 mg/kg/injection, schedule: Q01DX009 (ip), vehicle: water 116 % of control | dose: 5.0 mg/kg/injection, schedule: Q01DX009 (ip), vehicle: water 103 % of control | dose: 10.0 mg/kg/injection, schedule: Q01DX009 (ip), vehicle: water 115 % of control | dose: 20.0 mg/kg/injection, schedule: Q01DX009 (ip), vehicle: water 116 % of control

O=C1c2ccccc2-c2c1c1ccccc1n2S(=O)(=O)c1ccccc1
inactive: dose: 100.0 mg/kg/injection, schedule: Q01DX001 (ip), vehicle: Klucel (hydroxypropylcellulose) (HPC) 103 % of control | dose: 200.0 mg/kg/injection, schedule: Q01DX001 (ip), vehicle: Klucel (hydroxypropylcellulose) (HPC) 103 % of control | dose: 400.0 mg/kg/injection, schedule: Q01DX001 (ip), vehicle: Klucel (hydroxypropylcellulose) (HPC) 101 % of control

COC(=O)c1cnc(N)n1C
inactive: [10] 101 % of control

C1CN1CN1CC1
inactive: [4] 102 % of control | [5] 99 % of control

C[C@]12CC[C@H](O)CC1CC[C@@H]1C2CC[C@]2(C)NC(=O)CCC12 (some centres not stated)
inactive: dose: 100.0 mg/kg/injection, schedule: Q01DX001 (ip), vehicle: saline with Tween-80 108 % of control | dose: 200.0 mg/kg/injection, schedule: Q01DX001 (ip), vehicle: saline with Tween-80 108 % of control | dose: 400.0 mg/kg/injection, schedule: Q01DX001 (ip), vehicle: saline with Tween-80 120 % of control

CCN(CC)P(=O)(c1cccn1C)c1cccn1C
inactive: [1] 100 % of control | [2] 102 % of control | [3] 97 % of control

O=[N+]([O-])c1cn[n+]([O-])c2ccccc12
inactive: dose: 12.5 mg/kg/injection, schedule: Q01DX009 (ip), vehicle: saline with Tween-80 119 % of control | [1] 86 % of control

C=C1Cc2cc(OC)c(OC)cc2C(c2cccc(Cl)c2)=NN1C(C)=O
inactive: dose: 60.0 mg/kg/injection, schedule: Q01DX005 (ip), vehicle: saline with Tween-80 95 % of control | dose: 120.0 mg/kg/injection, schedule: Q01DX005 (ip), vehicle: saline with Tween-80 97 % of control | dose: 240.0 mg/kg/injection, schedule: Q01DX005 (ip), vehicle: saline with Tween-80 100 % of control

COC(=O)Nc1nc2c(OC)c(OC)c(OC)cc2[nH]1
inactive: dose: 12.5 mg/kg/injection, schedule: Q01DX005 (ip), vehicle: other 97 % of control | dose: 25.0 mg/kg/injection, schedule: Q01DX005 (ip), vehicle: other 100 % of control | dose: 50.0 mg/kg/injection, schedule: Q01DX005 (ip), vehicle: other 100 % of control | dose: 100.0 mg/kg/injection, schedule: Q01DX005 (ip), vehicle: other 102 % of control
